Consider two molecules from US7241753B2, “Method of treatment of prostate cancer” (priority 2000, dated 2007).

Where two headings read alike, the source gives them in different places.

The subject of experiment [1] is breast cancer cell lines. To be noted: in vitro; cited from earlier work.
Experiment [2] concerns myeloid cell line. The settings on record: in vitro; cited from earlier work.
For experiment [3], the system named is Dunning AT-1 hormone-refractory prostate cancer tumor. An excerpt:
(§1) The Dunning prostate cancer cell-line, AT-1, is a completely hormone-refractory tumor. It lacks measurable quantities of receptors for androgens as well as estrogens. As a result, the clinical behavior of this tumor is not influenced by the presence or absence of sex steroids. The doubling time of the tumor is 2.5 days, which makes it one of the most […] of all hormone-refractory Dunning tumors. It has a low (less than 5%) tendency for metastasis. The Dunning tumors are suitable for evaluating immunologic experiments with prostate cancer as they grow in immunocompetent animals.
(§2) Biopsies from excised tumors where investigated microscopically using the TUNEL-technique. Tumor biopsies were investigated with immuno-cytochemistry and antibodies for macrophages and T-lymphocytes.
In the second experiment, rats were treated as in experiment 1, but tumor size was not allowed to exceed 10 mm in diameter. This experiment was made to further evaluate the influence of tumor size on the outcome of treatment.
Animals were divided in four groups:
(§3) Group 4 animals served as tumor-bearing controls.
After animals had been sacrificed, freshly frozen tumor samples were examined for apoptosis using the TUNEL technique.

For experiment [4] the test system is unchanged. As to the kind of experiment: Experiment 1: Dunning AT-1 tumor transplanted subcutaneously in rats, tumors about 17 mm at start of treatment. The format is in vivo, Copenhagen-Fisher male rat.
Text: as §1, §2
In this experiment Dunning AT-1 tumor was passed through two Copenhagen-Fisher male rats and then transplanted in a single piece, approximately 10 mm^3, which was placed subcutaneously on a third Copenhagen-Fisher male rat's dorsal side. Tumors were allowed to grow to approximately 17 mm in diameter before treatment started. Four groups of six rats each were used.
Freund's complete adjuvant is used to potentiate immune reactivity and to trigger a T-cell response.
Group 3 animals received only complete Freund's adjuvant, 0.1 mL intra-tumorally.
as §3
Tumors were measured by slide caliper at the onset of experiment. This was repeated at the end of experiment when animals were sacrificed, tumors excised, and tumor weight was noted.

Setting [5] is: versus control, end of experiment 1.

Turning to `C[C@]12CC[C@H]3[C@@H](CC=C4C[C@@H](O)CC[C@@]43C)[C@@H]1CC[C@H]2O` [αAED, Δ5-androstene-3-β, 17α-diol], the apoptotic effect result in experiment [1] and in experiment [2] was “apoptotic effect” each time. The “time for which tumor growth was arrested following treatment” value in experiment [3] (single injection of 10 mg αAED) was “at least 96 hours”.

With `C[C@]12CC[C@H]3[C@@H](CC=C4C[C@@H](O)CC[C@@]43C)[C@@H]1CC[C@@H]2O` [βAED, Δ5-androstene-3-β, 17β-diol], in experiment [4] (end of experiment 1), the mean tumor weight turned out to be 11.6 g and the median tumor weight is reported as 10 g. For the same molecule, the “Tumor Diameter (mm)” value in experiment [4] (end of experiment 1 (sacrifice after 3 weeks)) worked out at 11.6 mm. Moreover, in experiment [4] (setting [5]), the “Decrease in Tumor Size (mm)” value came to 7.6 mm and the “Percent Reduction” value amounted to 39.58%. Further, the mean tumor weight in experiment [3] (single injection of 80 mg βAED, control 5.8 g) is 2.9 g. Also, the “tumor growth observed macroscopically” value in experiment [3] (single injection, αAED animals sacrificed after 96 hours) is given as “clear retardation of tumor growth”.
